# pIC50: −log10 of the molar value. Activity calls are given as the source filed them. The rule behind the calls is not given here.
# Target: Ubiquitin carboxyl-terminal hydrolase 8 (Homo sapiens) (UniProt P40818)
# Assay: Ubiquitin-specific protease 8 inhibitors, concentration-effect, biochemical, validation of initial actives (AID 1645862);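 note: potency reflects inhibition of USP8 cleavage of a ubiquitin rhodamine substrate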
# Details: recombinant USP8 deubiquitinase activity assay
# Ubiquitin carboxyl-terminal hydrolase 8 (Homo sapiens), sequence (P40818 whole entry, looked up): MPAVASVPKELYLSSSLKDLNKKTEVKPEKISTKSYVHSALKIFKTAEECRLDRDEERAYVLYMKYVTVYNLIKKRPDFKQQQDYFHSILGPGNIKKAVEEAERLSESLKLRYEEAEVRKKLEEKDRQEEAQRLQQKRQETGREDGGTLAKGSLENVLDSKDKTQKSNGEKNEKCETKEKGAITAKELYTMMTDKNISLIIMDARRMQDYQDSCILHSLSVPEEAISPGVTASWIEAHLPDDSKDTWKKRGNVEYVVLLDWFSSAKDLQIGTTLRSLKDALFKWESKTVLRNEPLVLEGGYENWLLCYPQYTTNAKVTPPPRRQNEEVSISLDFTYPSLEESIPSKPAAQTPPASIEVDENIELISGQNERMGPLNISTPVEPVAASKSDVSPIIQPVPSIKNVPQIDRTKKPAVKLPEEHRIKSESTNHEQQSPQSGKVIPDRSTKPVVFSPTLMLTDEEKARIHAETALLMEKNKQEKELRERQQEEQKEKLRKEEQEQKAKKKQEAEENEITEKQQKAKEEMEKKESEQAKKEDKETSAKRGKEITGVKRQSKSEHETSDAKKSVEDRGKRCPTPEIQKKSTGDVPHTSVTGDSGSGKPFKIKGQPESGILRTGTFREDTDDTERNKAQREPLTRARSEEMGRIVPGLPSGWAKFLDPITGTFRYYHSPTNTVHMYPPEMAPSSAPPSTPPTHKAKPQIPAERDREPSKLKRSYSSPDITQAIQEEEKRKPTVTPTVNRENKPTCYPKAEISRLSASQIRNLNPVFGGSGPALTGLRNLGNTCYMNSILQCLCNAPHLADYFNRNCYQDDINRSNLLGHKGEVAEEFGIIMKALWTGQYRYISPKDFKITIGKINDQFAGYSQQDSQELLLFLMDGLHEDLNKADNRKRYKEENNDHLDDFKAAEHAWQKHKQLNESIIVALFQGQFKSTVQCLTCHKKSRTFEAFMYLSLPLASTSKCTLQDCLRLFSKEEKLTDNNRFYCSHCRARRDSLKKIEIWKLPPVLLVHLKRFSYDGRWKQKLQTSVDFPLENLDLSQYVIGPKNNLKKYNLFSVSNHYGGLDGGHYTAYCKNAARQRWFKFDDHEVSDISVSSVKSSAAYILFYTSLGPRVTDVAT
Compound,IC50,pIC50
Cc1ccc(C(=O)Nc2ccc3c(c2)Sc2ncccc2C(=O)N3C(C)C)cc1C,> 40 µM (inactive),
Cc1nc(C(=O)NC2(O)C(=O)c3ccccc3C2=O)cs1,,5.37
Cc1cccc(NC(=O)CSc2nnc(NC(=O)c3ccc4ccccc4c3)s2)c1,> 40 µM (inactive),
O=C(NCCc1nc2ccccc2n1CCOc1ccccc1Cl)C1CCCCC1,> 40 µM (inactive),
Cc1cc(O)c(=O)cc2c1C[C@H]1CC(C)(C)/C=C/C[C@@]3(C)Oc4cc(=O)c(O)cc(C)c4C[C@@H]3C[C@H](O)[C@]1(C)O2,> 40 µM (inactive),
FC(F)(F)c1ccc(Nc2nnnc3ccccc23)cc1,> 40 µM (inactive),
Nc1ccc2oc(-c3cccc(-c4nc5cc(N)ccc5o4)n3)nc2c1,,4.48
Cc1cc(C(=O)Nc2cc([N+](=O)[O-])cc3oc(-c4ccccc4)cc23)on1,> 40 µM (inactive),
CCCc1ccc(C(=O)[C@@H]2[C@@H](C(=O)c3cccs3)N3c4ccc(C)cc4C(C)=C[C@@H]3[C@@]23C(=O)Nc2ccccc23)cc1,> 40 µM (inactive),
O=C(Nc1cc(S(=O)(=O)Nc2ccc(Cl)cc2)ccc1O)c1cc2c(s1)CCC2,,4.97
CCc1cccc(C)c1NC(=O)Cn1c(C(C)NC(=O)c2ccc(C)cc2)nc2ccccc21 (stereo not given),> 40 µM (inactive),
COc1ccc(-c2nc(-c3cc4cc(OC)ccc4[nH]c3=O)no2)cc1,> 40 µM (inactive),
C/C=C/C=C/[C@@H]1Cc2cc(O)cc(O)c2O1,,4.69
CCC(=O)Nc1nc2cc(NC(=O)Nc3ccc(C)cc3)ccc2s1,> 40 µM (inactive),
Cc1c(C(=O)Nc2ccc(Oc3ccccc3)cc2)nnn1-c1cccc(Cl)c1,> 40 µM (inactive),
Cc1ccc(-n2c(=O)[nH]c3c(C(N)=O)nc(-c4ccc(OCc5ccccc5)cc4)nc32)cc1,> 40 µM (inactive),
O=c1c2cc(Br)ccc2[nH]c(=S)n1Cc1cccnc1,> 40 µM (inactive),
Cn1cc(C(=O)NCC2COc3ccccc3O2)c(=O)c2cc(S(=O)(=O)N3CCCCC3)ccc21 (stereo not given),> 40 µM (inactive),
COc1cc(CC(=O)Nc2ccccc2N2CCOCC2)cc(OC)c1OC,> 40 µM (inactive),
COc1ccc(-c2noc(C3(c4ccc(F)cc4)CCOCC3)n2)cc1,> 40 µM (inactive),
Cc1ccccc1-c1noc(-c2ccccc2OCC(=O)NC(C)C)n1,> 40 µM (inactive),
O=c1[nH]c(C2CCN(S(=O)(=O)c3ccc(S(=O)(=O)NC4CCCCC4)cc3)CC2)nc2c1nnn2Cc1c(Cl)cccc1Cl,> 40 µM (inactive),
CC(=O)[C@H]1c2c(c(O)c3c(O)cccc3c2-c2c3c(c(O)c4c(O)cccc24)C(=O)C[C@](C)(O)[C@H]3C(C)=O)C(=O)C[C@]1(C)O,,4.61

Compound,IC50,pIC50
Cc1[nH]c2ccc(F)cc2c(=O)c1CN1CCCCC1,> 40 µM (inactive),
N#Cc1cccc(NC(=O)COC(=O)c2n[nH]c3ccccc23)c1,> 40 µM (inactive),
COc1ccccc1-c1nc(-c2cn(-c3ccc(F)cc3)nn2)no1,,4.56
Cc1cccc(-n2ccnc(SCC(=O)Nc3ccc(Cl)cc3F)c2=O)c1,> 40 µM (inactive),
COc1ccc(-n2ccc(=O)c(-c3nc(-c4ccc(F)cc4)no3)n2)cc1,> 40 µM (inactive),
CC(C)c1ccc(NC(=O)COC(=O)c2ccc(NS(=O)(=O)c3ccc4c(c3)OCCO4)cc2)cc1,> 40 µM (inactive),
O=C(Cn1c(=O)c2cccn2c2ccccc21)NCc1ccc(F)cc1,> 40 µM (inactive),
O=C(CCCn1c(=O)c2ccccc2n(CC(=O)c2ccc(Br)cc2)c1=O)NC1CCCC1,> 40 µM (inactive),
Cc1ccc(NC(=O)Cc2nnc3c(-c4nc(C5CC5)no4)cccn23)cc1,,4.73
O=C(NCc1ccc(Br)cc1)c1cc(-c2cccnc2)n[nH]1,> 40 µM (inactive),
Cc1ccc(C2=Nc3ccccc3N(CC(=O)Nc3cccc(C)c3C)C(=O)C2)cc1C,> 40 µM (inactive),
CN(CC(=O)Nc1ccc(Cl)cc1)c1cnn(-c2nc3ccccc3[nH]2)c(=O)c1Cl,> 40 µM (inactive),
Cn1c(O)c(C2=Nc3ccccc3SC(c3cccc(O)c3)C2)c(=O)[nH]c1=O (stereo not given),> 40 µM (inactive),
COc1ccc(-c2cc(-c3ccc(F)cc3)[nH]c(=O)c2C#N)cc1,> 40 µM (inactive),
CC1=C(C)C(N(c2ccccc2)c2ccccc2)N(CCC(C)C)C1=O (stereo not given),,4.42
CN(C)[C@@H]1C(=O)C(C(N)=O)=C(O)[C@@]2(O)C(=O)C3=C(O)c4c(O)cccc4[C@@](C)(O)C3[C@H](O)[C@@H]12 (stereo not given in full),,6.15
N#Cc1ccc(NC(=O)Nc2cccn(Cc3ccc(F)cc3)c2=O)cc1,> 40 µM (inactive),
COc1ccc(-c2onc(C)c2C)cc1S(=O)(=O)NCc1ccc(F)cc1,> 40 µM (inactive),
Cn1c(COc2cccc3cccnc23)nnc1SCC(=O)c1ccc(Cl)cc1Cl,> 40 µM (inactive),
Cc1ccc(NC(=O)Nc2ccccc2OCc2cc(=O)n3cc(C)ccc3n2)cc1,> 40 µM (inactive),
O=c1oc2c3c(c(Cl)cc2c2c1CCCC2)OCN(Cc1ccccc1)C3,> 40 µM (inactive),
Cc1ccc2c(c1)c(=O)c(C(=O)c1ccccc1)cn2CC(=O)Nc1ccccc1,,4.56
CCc1ccc(-n2cc(OC(C)=O)c3c2nc(C)n2c4ccccc4nc32)cc1,> 40 µM (inactive),

Compound,IC50,pIC50
O=C(CSc1nc2ccccc2[nH]1)Nc1cccc2c1OCCO2,> 40 µM (inactive),
COc1cc(OC)c(NC(=O)Cn2c(=O)n(Cc3ccccc3Cl)c(=O)c3cc(OC)c(OC)cc32)cc1Cl,> 40 µM (inactive),
O=C1c2c(O)cccc2C2(Oc3cccc4cccc(c34)O2)C2OC12 (stereo not given),,5.11
COc1ccc(-c2nc(-c3cn(-c4ccccc4)nn3)no2)c(OC)c1,> 40 µM (inactive),
Cc1ccc(Cn2c(=O)c3ncccc3n(CC(=O)NCc3ccc(F)cc3)c2=O)cc1,> 40 µM (inactive),
Cc1ccc(N2CC(c3nc4ccccc4n3CCOc3cccc(C)c3)CC2=O)cc1 (stereo not given),> 40 µM (inactive),
CCc1nnc(C(=O)Nc2ccc(C(=O)NCc3ccc(OC(C)C)cc3)cc2)s1,> 40 µM (inactive),
CC(=O)Nc1cccc(-c2cnc3sc(NC4CCCCC4)nn23)c1,> 40 µM (inactive),
O=C(NCCc1cccnc1)c1ccn(-c2ccc3ccccn23)n1,> 40 µM (inactive),
CCc1ccc(NC(=O)c2cc(C(F)(F)F)n(C)n2)cc1,> 40 µM (inactive),
O=C(Cn1c(COc2ccccc2)nc2ccccc21)Nc1ccc(N2CCOCC2)cc1,> 40 µM (inactive),
Cn1cc2cccc(NC(=O)c3ccc(F)cc3)c2n1,> 40 µM (inactive),
COc1cc(NC(=O)Cn2nc(-c3ccc(F)cc3)ccc2=O)ccc1-n1cnnn1,> 40 µM (inactive),
CSc1ccc(CNC(=O)Cn2c(=O)[nH]c3c(-c4ccccc4)c[nH]c3c2=O)cc1,> 40 µM (inactive),
Oc1cccc2c(-c3ccc(O)c4c(O)cccc34)ccc(O)c12,> 40 µM (inactive),
Cc1ccc(-n2nnnc2-c2cnc3cc(Cl)ccc3c2N)cc1,> 40 µM (inactive),
CN1CCC(N2CCN(C(=O)C3CCCN(c4cnc5nccnc5c4)C3)CC2)CC1 (stereo not given),> 40 µM (inactive),
COc1cccc(-c2cc(C(=O)Nc3cc(C)n(Cc4ccc(Cl)cc4)n3)no2)c1,> 40 µM (inactive),
O=C(CCCCn1c(=O)[nH]c2ccccc2c1=O)Nc1cccc(Cl)c1,> 40 µM (inactive),
Cc1cc(Cl)ccc1NC(=O)c1cc(-c2cccnc2)n[nH]1,> 40 µM (inactive),
COc1ccc(-c2c(NC(=O)C3COc4ccccc4O3)n[nH]c2C)cc1OC (stereo not given),,4.50
O=C(CN1CC=C(c2ccccc2)CC1)Nc1ccc(S(=O)(=O)N2CCOCC2)cc1,> 40 µM (inactive),
Cc1ccc(Nc2nc3c(S(=O)(=O)c4ccccc4)nnn3c3ccccc23)c(C)c1,> 40 µM (inactive),

Compound,IC50,pIC50
Cc1cc(CN2CCCCC2c2cc(=O)n3ccnc3[nH]2)no1 (stereo not given),> 40 µM (inactive),
C[C@@H]1CO[C@@H]2C3=C(C(=O)C=CC3=O)[C@H]3OC(=O)[C@@H]4CCC5[C@@H]1CCC52C34 (stereo not given in full),,4.60
Cc1ccc(NC(=O)c2ccc3nn(CC(=O)Nc4ccc(F)cc4F)c(=O)n3c2)cc1,> 40 µM (inactive),
O=C(CCn1c(=O)c2sccc2n(Cc2ccc([N+](=O)[O-])cc2)c1=O)NCc1ccccc1,> 40 µM (inactive),
COc1cc(O)c2c(O)c3c(cc2c1)C[C@@]1(O)CC(=O)C(C(N)=O)=C(O)[C@@]1(O)C3=O,,5.44
O=C(CN(CC(=O)NCc1ccccc1Cl)c1nc2ccccc2s1)NCc1ccccc1Cl,> 40 µM (inactive),
Cc1nc(N2CCCC2)ncc1-c1cc(=O)[nH]c(Nc2ccc(Cl)cc2Cl)n1,> 40 µM (inactive),
COc1ccc2c(c1)c(=O)c(S(=O)(=O)c1ccc(F)cc1)cn2Cc1cccc(F)c1,> 40 µM (inactive),
COc1cc(C)cc2c1C(=O)c1c(cc(O)c(Cl)c1O)C2=O,,5.48
O=c1c2ccccc2nc(/C=C/c2ccco2)n1Cc1ccccc1,> 40 µM (inactive),
CCOc1ccc(NC(=O)Cn2cc(C(=O)c3ccc(Cl)cc3)c(=O)c3cc(OC)ccc32)cc1,> 40 µM (inactive),
COc1ccc(/C=C/C(=O)Nc2ccc(Cl)c(-c3nc4ncccc4o3)c2)cc1,> 40 µM (inactive),
O=c1[nH]c(C2CCN(S(=O)(=O)c3ccc(S(=O)(=O)NC4CCCCC4)cc3)CC2)nc2c1nnn2Cc1c(F)cccc1Cl,> 40 µM (inactive),
Cc1cccc(NC(=O)Cn2c(=O)n(-c3cc(C)cc(C)c3)c(=O)c3sccc32)c1,> 40 µM (inactive),
FC(F)(F)c1cccc(Nc2nc(-c3ccccn3)nc3ccccc23)c1,> 40 µM (inactive),
O=C(CCCc1nnc2c(=O)n(-c3cccc(F)c3)ccn12)NCc1ccc(Cl)cc1,> 40 µM (inactive),
N#Cc1cccc(NC(=O)Nc2cccn(Cc3ccc(F)cc3)c2=O)c1,> 40 µM (inactive),
Cc1cc(C)c(NC(=O)Cc2sc(Nc3ccc(C)c(C)c3)nc2O)c(C)c1,> 40 µM (inactive),
CCOc1ccc(-c2nnc(NC(=O)C3CCN(S(=O)(=O)c4ccc5c(c4)CCC5)CC3)o2)cc1,> 40 µM (inactive),
Cc1ccc(CS(=O)(=O)c2cn(CC(=O)NCCc3ccccc3)c3ccccc23)cc1,> 40 µM (inactive),
COc1ccccc1NC(=O)c1nc(-c2cn(-c3cccc(F)c3)nn2)no1,> 40 µM (inactive),
